Data: patent publication US20090221056A1, “Pathogen-Detecting Cell Preservation Systems” (priority 2005, published 2009)
Entries after “also recorded” stand apart in the source; their conditions may differ. The star is where a group is joined. Cbz = O=C(OCc1ccccc1)*; CH2F = FC*

What was measured:
CANARY B cells = test: Viability of CANARY cells after storage with chemical additives; format: cell-based; conditions: storage at room temperature (1-3 weeks), compared to cells without additive
[1] = tested on: CANARY B cells (expressing a receptor specific for Yersinia pestis); format: cell-based
CANARY cells = test: Toxicity of chemical additives to CANARY cells; conditions: at 50 μM

## tunicamycin
CANARY B cells
  viability of cells stored at room temperature: improved both viability and activity
CANARY B cells; listed as Tunicamycin
  viability of cells stored at room temperature: increases both cell viability and activity
[1]
  activity (antigen detection) of cells stored at room temperature: increases both cell viability and activity; also recorded: retained detection sensitivity for Yersinia pestis; also recorded: improved both viability and activity
  beneficial effect on stored cells (viability and/or activity): beneficial effects
  benefit of treatment to stored cells: detrimental

## Cbz-LEHD-CH2F
CANARY cells
  toxicity of additive: toxic

## Cbz-WEHD-CH2F
CANARY cells
  toxicity of additive: toxic
